According to PubChem BioAssay (NCI):
Where “and” joins values, the source holds several entries; their conditions need not be identical. Equal entries are not always repeated.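 Five concentrations, 48 hours, 96-well plates. GI50: concentration for 50% inhibition of growth. TGI: concentration producing complete growth inhibition.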

Experiments:
Test in all cases: DTP human tumour cell line panel, 48 h
[1] = tested on: DU-145 prostate
[2] = tested on: ACHN renal
[3] = tested on: NCI-H460 lung
[4] = tested on: T-47D breast
[5] = tested on: SF-539 CNS
[6] = tested on: MDA-MB-435
[7] = tested on: A549 NSCLC
[8] = tested on: SN12C renal

Structure (SMILES) | GI50 [1] | TGI [1] | GI50 [2] | TGI [2] | GI50 [3] | TGI [3] | GI50 [4] | TGI [4] | GI50 [5] | TGI [5] | GI50 [6] | TGI [6] | GI50 [7] | TGI [7] | GI50 [8] | TGI [8]
Cc1ccc(Cl)cc1NC(=O)c1sc2nc3c(cc2c1N)C(=O)CCC3 | 4.4 µM | > 100 µM | 50.4 µM | > 100 µM | 3.73 µM | > 100 µM | > 100 µM | > 100 µM | 4.65 µM | > 100 µM | 1.1 µM | 5.04 µM | 3.85 µM | > 100 µM | – | –
CN(C)c1ccc(/C=C/c2cc[n+](C)c(/C=C/c3ccc(N(C)C)cc3)c2)cc1 | 0.398 µM | 11 µM | 0.401 µM | 2.4 µM | 0.343 µM | 1.72 µM | 0.152 µM | 1.3 µM | 0.393 µM | 3.01 µM | 0.346 µM | 1.32 µM | 0.334 µM | 10.6 µM | 0.273 µM | 1.15 µM
CN(C)CCCNC(=O)c1cc(NC(=O)c2cc(NC(=O)CCNS(=O)(=O)c3ccc4c(c3)C(=O)c3ccccc3C4=O)cn2C)cn1C | – | – | – | – | > 100 µM | > 100 µM | > 100 µM | > 100 µM | > 100 µM | > 100 µM | > 100 µM | > 100 µM | > 100 µM | > 100 µM | > 100 µM | > 100 µM
CN(C)CCNC(=O)c1ccc(NC(=O)c2nc([N+](=O)[O-])cn2C)cc1 | – | > 100 µM | – | > 100 µM | – | > 100 µM | – | > 100 µM | – | > 100 µM | – | > 100 µM | – | > 100 µM | – | > 100 µM
COc1cc(C2CC(c3ccc(Nc4ccnc5cc(Cl)ccc45)cc3)=NN2c2ccc(Cl)cc2)cc(OC)c1OC (centres undefined) | 8.08 µM | > 100 µM | 1.85 µM | > 100 µM | 3.16 µM | > 100 µM | 2.13 µM | > 100 µM | 1.74 µM | 7.36 µM | 0.329 µM | 2.05 µM | 4.15 µM | > 100 µM | 7.56 µM | > 100 µM
N#C/C(=C\c1ccc(Br)cc1)n1nnc2ccc(F)cc21 | – | – | 0.671 µM | 2.06 µM | 2.26 µM | 5.33 µM | 0.447 µM | 6.11 µM | 1.26 µM | 2.94 µM | 0.19 µM | 0.403 µM | 2.01 µM | 72.4 µM | 1.72 µM | 4.37 µM
O=C(/C=C/c1ccc(C(F)(F)F)cc1)c1ccc(Nc2nc(NCCO)nc(Nc3ccc(Cl)cc3)n2)cc1 | 6.08 µM | 18.7 µM | 4.81 µM | 17 µM | 4 µM | 13.6 µM | 3.4 µM | 26.6 µM | 2.39 µM | 6.62 µM | 3.46 µM | 12.8 µM | 3.48 µM | 13.5 µM | 5.53 µM | 17.5 µM
CSc1nc(SC)c2c(CO)c(Br)n(Cc3ccccc3)c2n1 | – | 77.8 µM | – | 44.7 µM | – | 30.5 µM | – | 74.2 µM | – | 29.1 µM | – | > 100 µM | – | > 100 µM | – | > 100 µM
O=C1C[C@@H]2/C(=C(O)\C=C\c3ccccc3)C(=O)C=C[C@@H]2O1 | 0.515 µM | 1.93 µM | 1.56 µM | 3.29 µM | 2.23 µM | 7.18 µM | 0.905 µM | 4.55 µM | 2.3 µM | 8.35 µM | 1.61 µM | 3.49 µM | 3.51 µM | 12.8 µM | 2.15 µM | 5.64 µM
C#CCOc1cccc(Nc2ncnc3cc(NC(=O)CCl)ccc23)c1 | 10 µM | 21.6 µM | 4.9 µM | 18 µM | 3.64 µM | 12.1 µM | 9.11 µM | 32 µM | 3.64 µM | 15 µM | 3.1 µM | 16.4 µM | 5.03 µM | 17.9 µM | 4.1 µM | 17.3 µM
COc1cc(-c2nc(SCCC(C)C)nc(Nc3ccc(S(N)(=O)=O)cc3)c2C#N)cc(OC)c1OC | 3.47 µM | > 100 µM | 2.79 µM | > 100 µM | 2.8 µM | 8.45 µM | 2.26 µM | > 100 µM | 2.01 µM | 5.22 µM | 3.15 µM | > 100 µM | 3.46 µM | > 100 µM | 1.81 µM | 3.51 µM
CCOC(=O)c1c2c(n3ccccc13)C(=O)c1ncccc1C2=O | 0.0466 µM | 5.31 µM | 0.0343 µM | 6.24 µM | – | – | 2.51 µM | 47.8 µM | 0.111 µM | 1.96 µM | 0.194 µM | 16.4 µM | 0.323 µM | 8.01 µM | 0.0348 µM | 5.85 µM
Cn1cc(-c2ccc(-c3ccc(C4=NC5(CC5)C(=O)N4C[C@@H]4CCN(C(=O)C5CC5)C4)cc3)cc2)cn1 | – | – | 14.3 µM | > 100 µM | 1.22 µM | 18 µM | 13.6 µM | > 100 µM | 10.7 µM | 32.1 µM | 10.4 µM | 38.9 µM | 12.5 µM | 39.3 µM | 17.5 µM | 77.3 µM
O=C1C(Cl)=C(NCc2ccco2)C(=O)c2ccccc21 | 2.6 µM | 6.27 µM | 27 µM | > 100 µM | 4.78 µM | > 100 µM | 10.2 µM | 73.7 µM | 20.9 µM | 54 µM | 2.06 µM | 3.89 µM | 7.61 µM | 31.1 µM | 25.9 µM | > 100 µM
COC(=O)[C@@H](C)C[C@H](Cc1ccccc1)NC(=O)c1csc([C@@H](C[C@H](C(C)C)N(C)C(=O)[C@@H](NC(=O)[C@H]2CCCCN2C)C2CC2)OC(C)=O)n1 | 0.000311 µM | – | 0.00104 µM and 0.00165 µM | > 16.5 µM | 0.000362 µM and 0.00165 µM | > 16.5 µM | – | – | 0.00125 µM and 0.00165 µM | 0.00448 µM and 0.00257 µM | < 0.00165 µM | < 0.00165 µM | 0.0027 µM and 0.00165 µM | > 16.5 µM | 0.00115 µM and 0.00165 µM | > 16.5 µM
COc1cccc(/C=N/C(/N=C/c2cccc(OC)c2O)c2cccc(OC)c2O)c1O | – | 78.7 µM | – | 58.6 µM | – | 59.9 µM | – | 63.9 µM | – | 48.9 µM | – | > 100 µM | – | 78.8 µM | – | 77.6 µM
NCCCNCCCCNC(=O)C(O)NC(=O)CCCCCCN=C(N)N (centres undefined) | 2890 µM | > 5000 µM | 2750 µM | > 5000 µM | > 2770 µM | 750 µM and > 5000 µM | 2130 µM | > 5000 µM | > 4070 µM | > 5000 µM | 1960 µM | > 3760 µM | 1640 µM | 750 µM and > 5000 µM | 2040 µM | > 5000 µM
COC(=O)/C=C/c1cc2c(cc1-c1c(C(=O)O)cc(OC)c(OC)c1OC)OCO2 | – | > 10 µM | – | > 10 µM | – | – | – | > 10 µM | – | > 10 µM | – | > 10 µM | – | > 10 µM | – | > 10 µM
Cc1cnc(C(=O)NNc2nc3sc4c(c3c(=O)n2C)C(C)CCC4)cn1 (centres undefined) | 0.458 µM | 4.15 µM | 0.308 µM | 2.02 µM | 0.194 µM | 2.02 µM | 0.416 µM | 5.68 µM | 0.396 µM | 2.38 µM | 0.751 µM | 7.26 µM | 0.371 µM | 4.69 µM | 0.51 µM | 4.55 µM
CC12CCC(Br)C(C)(C)C1CC=C1C(=O)OCC1O2 (centres undefined) | – | 25.7 µM | – | 26.2 µM | – | 36.2 µM | – | 45 µM | – | > 100 µM | – | 35.6 µM | – | > 57.9 µM | – | > 55.9 µM
COC(=O)CC[C@H](Cc1ccccc1)NC(=O)c1csc([C@@H](C[C@H](C(C)C)N(C)C(=O)[C@@H](NC(=O)[C@H]2CCCCN2C)C(C)C)OC(C)=O)n1 | < 0.0025 µM | > 25 µM | 0.013 µM | 21.4 µM | < 0.0025 µM | > 25 µM | – | – | – | – | – | – | 0.00744 µM | > 25 µM | < 0.0025 µM | > 25 µM
CCCCCCCc1cc2c3c(nc4ccccc42)C(=O)c2cccnc2-c3n1 | 2.54 µM | 6.63 µM | 4.08 µM | 8.19 µM | 1.05 µM | 3.1 µM | 4.31 µM | 20.7 µM | 18.8 µM | 34.8 µM | 1.96 µM | 4.33 µM | 2.46 µM | 11.9 µM | 4.81 µM | 10.8 µM
COc1cc2c(cc1OC)C13CCN4CC5CCOC6CC(=O)N2C1C6C5CC43 (centres undefined) | – | > 100 µM | – | > 100 µM | – | > 100 µM | – | > 100 µM | – | > 100 µM | – | > 100 µM | – | > 100 µM | – | > 100 µM
Cn1cc(C(=O)C[n+]2ccccc2)c2ccccc21 | – | – | – | > 100 µM | – | > 100 µM | – | – | – | > 100 µM | – | – | – | > 100 µM | – | > 100 µM
CCOc1ccc2nc(NC(=O)C(=O)C(c3cnc4ccccc4n3)[N+](=O)[O-])sc2c1 (centres undefined) | – | – | – | > 100 µM | – | > 100 µM | – | > 100 µM | – | > 100 µM | – | – | – | > 100 µM | – | > 100 µM
